Laboratory results from patent US20040062807A1, “Biocide compositions and a method for their production” (priority 2001, published 2004).

Columns and labels:
[1] = tested on: unidentified mold; assay: Growth of mold on petri dishes with fungicide composition in growth media (diameter); assay type: cell-based; conditions: 25° C., 3-5 days
Method: The fungus was allowed to grow at 25° C. for 3-5 days. At the end of this period, the diameter of the fungus on the plate was measured. All results were duplicated to assure accuracy.

[2] = tested on: fungus spores; assay: Fungus spore germination in growth media with fungicide composition (colony count); assay type: cell-based, unidentified mold; conditions: 3-5 days incubation
Method: The fungus was allowed to grow at 25° C. for 3-5 days. At the end of this period, the diameter of the fungus on the plate was measured. All results were duplicated to assure accuracy. In a second series of experiments, the growth of fungus spores was measured under the same conditions as those described above. The number of colonies were measured, again after 3-5 days of incubation.

[3] = 15% composition in growth media
[4] = 25% composition in growth media

SMILES: O=C([O-])[O-].[Ca+2] [Calcium carbonate]
- Growth of Fungus (CFU diameter) ([1]; 5% composition in growth media): 9 cm
- Growth of Fungus (CFU diameter) [1, 3]: 9 cm
- Growth of Fungus (CFU diameter) [1, 4]: 9 cm
- Fungus Germination (CFU per ml) ([2]; 5% composition in growth media): 100 CFU per ml
- Fungus Germination (CFU per ml) [2, 3]: 150 CFU per ml
- Fungus Germination (CFU per ml) [2, 4]: 110 CFU per ml
